The text below walks through data of patent US20090156657A1, “ANTI-INFLAMMATORY COMPOSITION” (Ajinomoto Co., Inc., priority 2006, published 2009).

The subject of assay [1] is NF-κB (p65). The assay can be described thus: Activation of NF-κB (nuclear translocation of p65) in HAEC stimulated with high glucose. The settings on record: pre-treatment 5 and 10 μM 24 h, 25 mM glucose 2 h, FIG. 1. It counts as cell-based, human. Here is the method:
In the present invention, the term “suppression of NF-κB activation” means suppression of the translocation of NF-κB into the nucleus. The suppression of the translocation of NF-κB into the nucleus can be confirmed by the method described in Example 1. To be specific, a test substance is added to a culture medium of human aortic endothelial cells, the cells are incubated for a predetermined time, the nucleus is extracted from the aforementioned cells stimulated with glucose, and activated NF-κB (p65) translocated into the nucleus is detected. Using the cells before glucose stimulation, wherein NF-κB is not activated, as a negative control and the cells stimulated with glucose and free of addition of a test substance as a positive control, when the detection level of the aforementioned p65 is closer to the negative control than to the positive control, NF-κB activation is evaluated to have been suppressed.
Human aortic endothelial cells (HAEC) were purchased from Clonetics Corp, and the cells cultured for 3-4 passages (37° C., under 5% carbon dioxide gas atmosphere) were used for the experiment. […] Nucleus was extracted from the cells using Nuclear Extract Kit (Active Motif), and then the activated NF-κB (p65) translocated into the nucleus was detected by TransAM NF-κB p65 Kit (Active Motif).

The subject of assay [2] is U-937 monocyte cells / HAEC. The assay can be described thus: Monocyte (U-937) adhesion to HAEC cells. The following applies: HAEC pre-incubated 5 or 10 μM 24 h, 25 mM glucose 4 h; FIG. 5. It counts as cell-based, human. How it is done:
HAEC cells proliferated to confluence in a 24 well microplate were pre-incubated with CS and FS (5 or 10 μM each) for 24 hours and stimulated with 25 mM glucose for 4 hours. The cell layer was washed with Hanks solution, and then a suspension (1×10^6/mL, 200 μL) of U-937 monocyte cells (purchased from ATCC) was added, and the mixture was incubated at 37° C. for 30 minutes. After washing again, the cells were fixed with 1% para-formaldehyde and the number of U-937 cells attached onto HAEC was counted under a microscope (20 fields). The experiment was performed 3 times and the results are shown as an average value thereof. An experiment using fluorescence-labeled U-937 cells was also performed. To be specific, U-937 cells were incubated (37° C., 1 hour) in the presence of 10 μM 2′,7′-bis(2-carboxyethyl)-5(6)-carboxyfluorescein acetoxymethylester (BCECF-AM, Molecular Probes) and washed by centrifugation. Fluorescence-labeled U-937 cells (1×10^6/mL) were added to HAEC cells, and the mixture was incubated at 37° C. for 1 hour. The floating U-937 cells were removed, the plate was washed with PBS buffer and treated with 1% Triton X for 2 hours. The fluorescence amount of the attached cells was quantified (Ex. 503 nm, Em. 525 nm) using a fluorescence plate reader (Bio-Rad, Fluoromark).

For assay [3], the system named is U-937 cells / HAEC. The assay can be described thus: Migration capability of monocyte (U-937), Transwell system with HAEC. It counts as cell-based, human. The settings on record: HAEC pre-incubated 5 or 10 μM 24 h, 25 mM glucose 4 h; FIG. 7. How it is done:
The migration capability of monocyte was measured using the Transwell system (pore size 3 μm; BD Biosciences). HAEC cultured on a transwell placed in a 24 well microplate was pre-incubated with 5 or 10 μM serotonin derivative for 24 hours, and stimulated with 25 mM glucose for 4 hours. 200 μL of U-937 cell suspension (10^6 cells/mL) was added to the transwell and the cells were incubated as-is at 37° C. for 2 hours. The number of cells migrated to the lower chamber of the transwell through the membrane was counted under a microscope (20 fields). The experiment was repeated three times, and the results are shown as an average value thereof. An experiment using fluorescence-labeled U-937 cells was also performed. BCECF-AM-labeled U-937 cells were plated in the upper chamber of the transwell and incubated at 37° C. for 2 hours. The cells migrated to the lower chamber through the membrane were collected in 1 mL of PBS buffer and treated with 1% Triton X for 2 hours. The fluorescence derived from the migrated cells was quantified (Ex. 503 nm, Em. 525 nm) using a fluorescence plate reader (Bio-Rad, Fluoromark).

The subject of assay [4] is blood NOx. Briefly: IBD model mouse: blood NOx concentration. It counts as in vivo. The settings on record: IBD model mice, diet 3 weeks, vs Control group; FIG. 13. Here is the method: By the activation of leukocytes in an inflammatory response, a large amount of NO is produced by the cells, and the blood concentration of NOx, a metabolite, increases. It is known that blood NOx concentration becomes one index of inflammatory response in living organisms due to this mechanism (Yuka Ikenoue et al., International Immunopharmacology 5 (2005) 993-1006). The NOx concentration of the blood obtained in Example 10 was measured using an “Nitric Oxide Quantitation Kit (ACTIVE MOTIF)”.

Assay [5] concerns TNF-α mRNA. Briefly: IBD model mouse: TNF-α mRNA in large intestine tissue (realtime PCR). It counts as in vivo. The settings on record: IBD model mice, vs Control group, GAPDH internal standard; FIG. 15. The text has this:
At the end of the test described in Example 10, the large intestine (caecum—anus) was cut into about 1 cm pieces from the center to the anus side to give 3 sections in total. One of them was fixed with 10% formalin solution and two were frozen in liquid nitrogen. The large intestine fixed with formalin was embedded in paraffin, and sliced to give transversely sectioned specimens. The specimens were stained by a PAS (Periodic acid Schiff) staining method, and histopathological images were observed. On the other hand, total RNA was extracted from the frozen large intestine tissue with ISOGEN (NIPPON GENE CO., LTD.) Total RNA (2 μg) was subjected to a reverse transcription reaction using a SYBR ExScript™ RT-PCR kit (TaKaRa) and, using this as a template, quantitative realtime PCR was performed using IL-1β, TNF-α and GAPDH. The primers used for the analysis were as follows.
Template DNA (2 μl), SYBR Premix Ex Taq™ (TaKaRa, 10 μl), ROX Reference Dye (0.4 μl), 100 μM forward primer (0.04 μl), 100 μM reverse primer (0.04 μl) and sterile water (7.52 μl) were mixed on ice and, using Applied Biosystems 7900HT Fast realtime PCR system, the mixture was heated at 95° C. for 10 seconds, followed by 40 cycles of 95° C., 5 seconds and 60° C., 34 seconds, whereby the DNA was amplified. Using GAPDH as the internal standard, IL-1β and TNF-α expression levels were evaluated.

On to `COc1cc(/C=C/C(=O)NCCc2c[nH]c3ccc(O)cc23)ccc1O` [FS, N-feruloyl serotonin], for which the “nuclear translocation of p65 (activation of NF-κB)” value in assay [1] is on record as “significantly suppressed”. Moreover, the “number of U-937 cells attached onto HAEC (cell count)” value in assay [2] is listed as “decreased the number of attached cells in a serotonin derivative dose-dependent manner”. The “number of U-937 cells migrated into subendothelium space (cell count)” value in assay [3] is listed as “significantly decreased”. The “blood NOx concentration” value in assay [4] is “tendency toward decrease”. The “mRNA expression level of TNF-α in large intestine tissue” value in assay [5] is “tendency toward decrease”.
